The record followed here is article PMC10848157, “Assessing NH300094, a novel dopamine and serotonin receptor modulator with cognitive enhancement property for treating schizophrenia” (Frontiers in Pharmacology, 2024).

Counter-ions that a name gives are not always drawn.

Experiment [1] relates to male ICR mice. Briefly: Novel object recognition in scopolamine hydrobromide-treated mice. The settings on record: NOR; NH300094 0.01–0.16 mg/kg p.o.; risperidone 0.04, 0.08, 0.16 mg/kg p.o.; rivastigmine 0.3 and 1 mg/kg i.p. Type of experiment: in vivo. The method, then: The procedure was modified according to Bevins and Besheer ([Bevins and Besheer, 2006]). […] The tests were conducted in a 50 cm × 35 cm × 20 cm chamber and the mice behavior was recording using a Hikvision video recording system (H.265, Hikvision Digtial Technology Co., Ltd.). All mice were allowed to freely explore the chamber environment for 10 min, and there were no objects placed in the chamber during acclimatization period. […] Rivastigmine hydrogen tartrate group (0.1, 0.3 and 1 mg/kg, i.p.) were dosed simultaneously with scopolamine hydrobromide (3 mg/kg, i.p.). Training was conducted 30 min post scopolamine hydrobromide administration by placing a single mouse into a chamber for 10 min with two exactly same objects positioned in the center of chamber. (The distance between the two objects was more than 20 cm). […]
The experimental video was analyzed to record the time of mice exploring the new and old objects, respectively, and the differentiation index (DI) was calculated as follows: DI = new object exploration time/(new object exploration time + old object exploration time), which was used as the main evaluation index of discrimination ability. […] If the total exploration time of the new and old objects was less than 20 s, the total 10 min of video would be analyzed. […] The movement of circling without sniffing or sitting on the object was not recorded as exploration behavior.

For another experiment, the target named is T1, 5-HT2C receptor (Homo sapiens, UniProt P28335).
T1 sequence (P28335 33-458): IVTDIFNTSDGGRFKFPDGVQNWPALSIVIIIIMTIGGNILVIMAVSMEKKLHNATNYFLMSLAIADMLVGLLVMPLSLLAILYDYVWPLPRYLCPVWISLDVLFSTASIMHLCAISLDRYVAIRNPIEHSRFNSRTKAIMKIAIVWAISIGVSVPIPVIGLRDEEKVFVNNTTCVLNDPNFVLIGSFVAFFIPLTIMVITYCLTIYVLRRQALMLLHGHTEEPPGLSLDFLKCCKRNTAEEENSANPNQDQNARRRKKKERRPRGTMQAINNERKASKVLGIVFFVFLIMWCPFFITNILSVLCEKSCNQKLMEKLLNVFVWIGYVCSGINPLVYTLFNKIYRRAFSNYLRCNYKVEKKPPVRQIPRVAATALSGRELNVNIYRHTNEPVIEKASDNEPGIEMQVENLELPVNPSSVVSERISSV
Put plainly: 5-HT2C receptor functional assay (calcium flow, FLIPR). Format: cell-based. The settings on record: HEK293/5-HT2C cells, read-out: 5HT2cR, IC50.

In another experiment the target is 5-HT1B receptor (Homo sapiens, UniProt P28222). Briefly: 5-HT1B receptor functional assay (cAMP assay, inverse agonist). Format: cell-based. The settings on record: inverse agonist activity, CHO-K1/5-HT1B cells, read-out: 5HT1BR, EC50.
For experiment [2], the system named is male ICR mice. Briefly: APO-induced climbing in mice.
Another experiment relates to male Wistar rats. Put plainly: Conditioned avoidance response test in rats. Type of experiment: in vivo. The settings on record: Rattus norvegicus, single oral dose, read-out: ED50, inhibition of conditioned avoidance response. The text has this: Shuttle-box Avoidance Test Video Analysis System (DigBehv-SBG, Shanghai Jiliang Software Technology Co. Ltd.) were used to assess the rats conditioned avoidance response.
Phase I: The rats responded to the conditioned stimulus (auditory and visual) by training with foot shock reinforcement. Briefly, rats were placed into the CAR shuttle boxes for a 5-min habituation followed by 30 trials presented on a 20-s variable interval (20–30 s) stimulus. Each rats were subjected to a conditioned stimulus which consisted of 10s presentation of light and white noise, and then followed by a scrambled 1.5 mA foot shock for 10 s. […] Rats with avoidance rates greater than 70% for 3 consecutive days were included in this study post-training.
Phase II: The qualified rats were randomly divided into 7 groups. […] The procedure in the testing phase was the same as the Phase I described. The number of avoidances, escapes, and escape failures were recorded.

Experiment [3] concerns male ICR mice. Briefly: Forced swimming test in mice. Type of experiment: in vivo. The settings on record: single oral dose; NH300094 0.03 mg/kg; risperidone 0.01, 0.03 and 0.1 mg/kg. The protocol: Each mouse was required to swim in an open cylindrical container (height of 25 cm, diameter of 10 cm) after intragastric administration of compounds 1 h. The container contained 1.2 L of water with temperature maintained at 24°C ± 1°C. The test used a computerized analysis and tracking system (Clever Sys Inc., Leesburg, VA) to recorded the duration of immobility (last 4 min of a total time of 6 min) about the testing mice.

Experiment [4] concerns male ICR mice. Put plainly: MK-801-induced hyperactivity in mice. Format: in vivo. The settings on record: single oral dose. The method, then:
Immediately after injection with either saline or MK-801 (0.3 mg/kg, i.p.), the mice were placed into the test chambers (29 cm × 29 cm × 30 cm) for 60 min of locomotion recording using a tracking and computerized analysis system (TopScan Version 3.00, Clever Sys Inc., Leesburg, VA).

The test system of experiment [5] is male ICR mice. Put plainly: DOI-induced head twitch in mice.
Where [6] appears, read: single oral dose, male ICR mice.

5-HT1B receptor, sequence (P28222 whole entry): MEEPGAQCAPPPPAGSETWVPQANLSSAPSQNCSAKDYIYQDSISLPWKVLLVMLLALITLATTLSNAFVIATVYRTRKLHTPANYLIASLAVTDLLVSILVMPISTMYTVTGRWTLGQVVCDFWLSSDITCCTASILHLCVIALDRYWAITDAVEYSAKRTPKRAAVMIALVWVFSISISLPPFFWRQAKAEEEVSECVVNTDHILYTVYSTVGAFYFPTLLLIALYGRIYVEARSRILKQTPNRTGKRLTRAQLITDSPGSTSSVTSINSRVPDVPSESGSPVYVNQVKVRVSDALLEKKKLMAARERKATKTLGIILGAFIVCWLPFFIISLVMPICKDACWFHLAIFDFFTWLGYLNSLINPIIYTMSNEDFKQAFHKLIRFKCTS

For the compound `CCN(C)C(=O)Oc1cccc([C@H](C)N(C)C)c1` [rivastigmine bitartrate, rivastigmine hydrogen tartrate, reference compound], the “effect on differentiation index (DI) of scopolamine hydrobromide-treated mice” value with male ICR mice [1] was “significantly enhanced learning and memory ability”.
What is called IC50 is the concentration needed to halve the response being measured. As a reminder, the EC50 is the midpoint of the concentration-response curve. `CSc1ccc2c(c1)C(N1CCN(C)CC1)Cc1ccccc1S2` (centres unmarked) [Methiothepin, reference compound]: at 5-HT2C receptor, the concentration for half-maximal inhibition (IC50) worked out at 39.7 nM. Moreover, the EC50 at 5-HT1B receptor worked out at 22.3 ± 9.69 nM.
Take `Cc1nc2n(c(=O)c1CCN1CCC(c3noc4cc(F)ccc34)CC1)CCCC2` [Risperidone, risperidone, reference compound]: the ED50 in the experiment on male ICR mice [2] (Mus musculus, read-out: ED50, inhibition of APO-induced climbing) is ~0.1 mg/kg; in the experiment with male Wistar rats, ~0.7 mg/kg; in the experiment with male ICR mice [4] (Mus musculus, MK-801 0.3 mg/kg i.p., read-out: ED50, inhibition of MK-801-induced hyperactivity), ~0.08 mg/kg; in the experiment on male ICR mice [5] (Mus musculus, po, read-out: ED50, inhibition of DOI-induced head twitch, single oral dose, male ICR mice, DOI 1 mg/kg), ~0.002 mg/kg. The “MED, APO-induced climbing” value in the experiment with male ICR mice [2] (setting [6]) was determined as 0.1 mg/kg. Also, in the experiment with male ICR mice [3], the “effect on immobility time in the FST” value was “did not affect the immobility time”. Besides, the “Minimum effective dose (MED), MK-801-induced hyperactivity” value with male ICR mice [4] was 0.1 mg/kg. Besides, in the experiment with male ICR mice [5] (setting [6]), the “MED, DOI-induced head twitch” value was found to be 0.001 mg/kg.
